In patent US20090048461A1, “Regulators of Bacterial Signalling Pathways” (Biosignal Limited, priority 2004, published 2009):

What was measured:
[1] = system: V. harveyi reporter strain BB170 Al-2 bioluminescence; test: V. harveyi bioassay for the detection of Al-2 activity (bioluminescence); format: cell-based, Vibrio harveyi; settings: concentration of 50 ug/ml
Description: The V. harveyi bioassay was performed as described previously (Surette and Bassler, 1998). The V. harveyi reporter strain BB170 was grown for 16 hours at 30° C. with shaking in AB medium. Cells were diluted 1:5,000 into 30° C. prewarmed AB medium and 90 ul of the diluted suspension was added to wells containing supernatant. Compounds to be tested were added to the wells to achieve the desired final concentrations and the final volume in each well was adjusted with sterile medium to 100 ul. Ten ul of V. harveyi BB152 (Al-1−, Al-2+) supernatant was used as a positive control and 10 ul of E. coli DH5α supernatant or sterile media was used as a negative control. […] The microtiter plates were incubated at 30° C. with shaking at 175 rpm. Hourly determinations of the total luminescence were quantified using the chemiluminescent setting on a Wallac (Gaithersburg, Md.) model 1450 Microbeta Plus liquid scintillation counter. The V. harveyi cell density was monitored by the use of a microplate reader (Bio-Rad, Hercules, Calif.). Activity is reported as the percentage of activity obtained from V. harveyi BB152 cell-free supernatant. While the absolute values of luminescence varied considerably between experiments, the pattern of results obtained was reproducible.

[2] = system: Pseudomonas aeruginosa; test: Attachment of Pseudomonas aeruginosa (Example 10); format: cell-based; settings: 50 μg/ml; 1:9 dilution of TBY medium, 6 hrs
Description: (§1) The experiments were performed in 96 well microtiter plates using a volume of 100 μl. The growth medium was BHI and the plates were incubated at 37° C. One % of overnight inoculum was used and the concentration of the compound to be tested was 50 μg/ml. Both growth and attachment of the cells were monitored at the end point of the experiments which was and after 24 hrs with P. canoris. The cells were stained with crystal violet and the absorbance was measured at 595 nm.
(§2) As Example 9, but the used medium was a 1:9 dilution of TBY medium and the incubation time was 6 hrs.

[3] = system: Pseudomonas aeruginosa; test: Growth of Pseudomonas aeruginosa (Example 10); format: cell-based; settings: 50 μg/ml; 1:9 dilution of TBY medium, 6 hrs
Description: as §1, §2

[4] = system: Staphylococcus aureus; test: Growth of Staphylococcus aureus in sidearm flasks (absorbance 610 nm); format: cell-based
Description: Compounds 122 and 123 were tested against growth of Staphylococcus aureus. The experiments were performed in sidearm flasks and the growth was measured at 610 nm for 12 hours. Hundred μl of an overnight culture was added to 10 ml of growth medium. Nutrient Broth, containing furanones at concentrations 10 and 25 μg/ml. The bacteria were incubated at 37° C.

[5] = system: Pseudomonas aeruginosa (PA01 DO); test: Attachment of Pseudomonas aeruginosa (PA01 DO), crystal violet, microtiter plate; format: cell-based; settings: no concentration stated
Description: The experiments were performed in 96 wells microtiter plates using a volume of 200 μl. The growth medium was M9 and the plates were incubated at 37° C. One % of overnight inoculum was used and the concentrations of the compounds to be tested were 25 and 50 μg/ml. The attachment of the cells were monitored at the endpoint of the experiment which was after 24 hrs. The cells were stained with crystal violet and the absorbance was measured at 595 nm. Reduction in attachment was measured against the control (PAO1 Do ETO ) set at 100%.

[6] = system: Porphyromonas canoris; test: Growth of Porphyromonas canoris (Example 9); format: cell-based; settings: 50 μg/ml; BHI, 24 hrs
Description: as §1

[7] = system: Porphyromonas canoris; test: Attachment of Porphyromonas canoris (Example 9); format: cell-based; settings: 50 μg/ml; BHI, 24 hrs
Description: as §1

[8] = system: two-component signal transduction systems (Taz system); test: Taz-1 assay (two-component signal transduction, beta-galactosidase activity); format: cell-based, E. coli RU1012 (pYT0301); settings: for reduction of beta-galactosidase activity: 3 mM aspartate, 4 hours; for inhibition of two-component signal transduction systems: no concentration stated
Description: The Taz-assay carried out according to the method of Jin and Inouyc (1993) with the following alterations. E. coli RU1012 (pYT0301) were grown overnight in M9 medium at 37° C. supplemented with 100 ug/ml ampicillin and 50 ug/ml kanamycin. This overnight culture was then used to inoculate 50 ml M9 medium in side-arm flasks which were then incubated at 37° C. and shaken at 180 rpm. The OD610 of the growing cultures was monitored regularly and when the OD610=0.2 the cultures were placed on ice […] to give a final concentration of 3 mM (aspartate stock solution made up in M9 salts).
The test compound or mixtures of compounds were dissolved in ethanol and added to cultures to give the required final concentrations. Negative controls were prepared with equal volumes of ethanol. Cultures were then placed in a 37° C. incubator and shaken for 4 hours (OD610 approximately 0.7) before being removed and put on ice. Samples were then removed for beta-galactosidase assays carried out according to the method of Miller (1972). Aspartate (the natural inducer of the Taz system) was used as a positive control at a concentration of 3 mmolar.

[9] = 25 μg/ml, Nutrient Broth, 37° C., 12 hours

CCCCC(=CBr)C(C)=O [Compound 101, 3-(Bromomethylene)-2-Heptanone]
effect on bioluminescence activity [1]: significant increase

CCC(=O)/C(C)=C/Br [Compound 123, 2-(Bromomethylene)-3-Pentanone]
effect on attachment to a surface [2]: significantly limits
effect on bioluminescence activity [1]: significant increase
effect on growth [3]: relatively insignificant effect
growth inhibition ([4]; 10 μg/ml, Nutrient Broth, 37° C., 12 hours): slight growth inhibition
prolonged lagphase of growth [4, 9]: 4 h
growth inhibition compared to 122 ([4]; concentrations 10 and 25 μg/ml): more growth inhibitory
effect on attachment [5]: reduce the attachment
effect on growth [6]: relatively insignificant effect
effect on attachment to a surface [7]: significantly limits
reduction of beta-galactosidase activity ([8]; concentration of 25ug/ml): 40%
inhibition of two-component signal transduction systems [8]: act as inhibitors

CC(=O)/C(C)=C/Br [Compound 80, 3-(Bromomethylene)-2-Butanone]
reduction of beta-galactosidase activity ([8]; concentration of 50 ug/ml): 75%
inhibition of two-component signal transduction systems [8]: act as inhibitors

CCC/C(=C\Br)C(C)=O [Compound 122, 3-(Bromomethylene)-2-Hexanone]
effect on bioluminescence activity [1]: significant increase
growth inhibition [4, 9]: slight growth inhibition
effect on attachment [5]: reduce the attachment
